Laboratory results published in ChEMBL document CHEMBL4373746, “Structural attributes influencing unbound tissue distribution” (Eur J Med Chem, 2020).

Tests used:
[1] = Drug concentration in total white adipose tissue in Wistar Han rat at 1 to 2 mg/kg, iv infused for 10 to 20 hrs by LC-MS/MS analysis; settings: in vivo
[2] = Apparent permeability of the compound across dog RRCK cells by MDCK-LE assay
[3] = Drug concentration in total liver in Wistar Han rat at 1 to 2 mg/kg, iv infused for 10 to 20 hrs by LC-MS/MS analysis; settings: in vivo
[4] = Unbound tissue partition coefficient, ratio of drug level in adipose to plasma in Wistar Han rat at 1 to 2 mg/kg, iv infused for 10 to 20 hrs by LC-MS/MS analysis; settings: adipose/plasma
[5] = Fraction unbound in Wistar Han rat white adipose tissue at 2 uM incubated for 6 hrs by equilibrium dialysis method
[6] = Drug concentration in total skeletal muscle in Wistar Han rat at 1 to 2 mg/kg, iv infused for 10 to 20 hrs by LC-MS/MS analysis; settings: in vivo
[7] = Unbound tissue partition coefficient, ratio of drug level in heart to plasma in Wistar Han rat at 1 to 2 mg/kg, iv infused for 10 to 20 hrs by LC-MS/MS analysis; settings: heart/plasma
[8] = Unbound tissue partition coefficient, ratio of drug level in liver to plasma in Wistar Han rat at 1 to 2 mg/kg, iv infused for 10 to 20 hrs by LC-MS/MS analysis; settings: liver/plasma
[9] = Unbound tissue partition coefficient, ratio of drug level in skeletal muscle to plasma in Wistar Han rat at 1 to 2 mg/kg, iv infused for 10 to 20 hrs by LC-MS/MS analysis; settings: skeletal muscle/plasma
[10] = Fraction unbound in Wistar Han rat liver at 2 uM incubated for 6 hrs by equilibrium dialysis method
[11] = Fraction unbound in Wistar Han rat skeletal muscle at 2 uM incubated for 6 hrs by equilibrium dialysis method
[12] = Fraction unbound in Wistar Han rat heart at 2 uM incubated for 6 hrs by equilibrium dialysis method
[13] = Unbound tissue partition coefficient, ratio of drug level in brain to plasma in Wistar Han rat at 1 to 2 mg/kg, iv infused for 10 to 20 hrs by LC-MS/MS analysis; settings: brain/plasma
[14] = Drug concentration in total brain in Wistar Han rat at 1 to 2 mg/kg, iv infused for 10 to 20 hrs by LC-MS/MS analysis; settings: in vivo
[15] = Fraction unbound in Wistar Han rat brain at 2 uM incubated for 6 hrs by equilibrium dialysis method
[16] = Drug concentration in total heart in Wistar Han rat at 1 to 2 mg/kg, iv infused for 10 to 20 hrs by LC-MS/MS analysis; settings: in vivo
[17] = Total plasma concentration in Wistar Han rat at 1 to 2 mg/kg, iv infused for 10 to 20 hrs by LC-MS/MS analysis; settings: in vivo
[18] = Fraction unbound in Wistar Han rat plasma at 2 uM incubated for 6 hrs by equilibrium dialysis method

Ct [1] [ng/mL]	Papp [2] [×10⁻⁶ cm/s]	Ct [3] [ng/mL]	Kp uu [4]	fraction unbound at 6 h, 2 µM [5]	Ct [6] [ng/mL]	Kp uu [7]	Kp uu [8]	Kp uu [9]	fraction unbound at 6 h, 2 µM [10]	fraction unbound at 6 h, 2 µM [11]	fraction unbound at 6 h, 2 µM [12]	Kp uu [13]	Ct [14] [ng/mL]	fraction unbound at 6 h, 2 µM [15]	Ct [16] [ng/mL]	Cp [17] [ng/mL]	fraction unbound at 6 h, 2 µM [18]	Compound
13	38	520	0.86	0.0597	29	1.4	3.9	0.45	0.00676	0.0139	0.00954	0.12	22	0.00498	130	93	0.00965	Cc1c(C(=O)O)cnn1-c1nc(-c2cccc(C(F)(F)F)c2)cs1
0.77	0.1	1000	0.024	0.119	0.8	0.57	12	0.02	0.00684	0.011	0.00934	0.0042	0.95	0.00795	45	45	0.0141	CC(C)C[C@H](Nc1ccc(C(=O)NCCC(=O)O)cn1)c1ccc(-c2ccc(C(F)(F)F)cn2)cc1
21	5.5	470	2	0.113	97	2.7	4.5	1.3	0.0115	0.0154	0.013	0.011	2.4	0.00529	240	55	0.0219	NC(=O)c1c(-c2ccc(Oc3ccc(Cl)cc3)cc2)nn([C@@H]2CCCN(C(=O)/C=C/CO)C2)c1N
1800	16	1200	2.3	0.00185	180	0.77	7	0.13	0.00939	0.0012	0.00363	0.4	150	0.00429	360	210	0.00785	COc1cc(/C=C2\CCCN([C@@H](C)c3ccc(F)cc3)C2=O)ccc1-n1cnc(C)c1
240	25	630	4.8	0.00709	37	1.9	31	0.65	0.0191	0.0067	0.00576	2.5	91	0.0099	130	92	0.0044	Cc1ccc(NC(=O)N2CCN(Cc3sc4ccccc4c3C)CC2)nc1
0.77	12	190	0.024	0.516	14	0.39	2.4	0.27	0.628	0.865	0.422	0.02	1	1	40	130	0.373	CS(=O)(=O)c1cccc(C(=O)O)c1
45	5.1	46	6.9	0.281	38	18	3.6	3.5	0.146	0.16	0.0824	0.065	2	0.0654	400	4.5	0.438	C[C@H]1COCCN1c1nc(-c2cnc(N)nc2)c2c(n1)N([C@@]1(C)CCN(C(=O)C(C)(C)N)C1)CC2
5.4	9.8	350	0.26	0.672	33	0.75	4.5	0.29	0.191	0.132	0.15	0.0032	0.69	0.0945	77	79	0.19	COc1ccc2ncc(F)c([C@@H](O)CC[C@@H]3CCN(CCSc4cccs4)C[C@@H]3C(=O)O)c2c1
4.7	5.3	400	0.36	0.0322	16	0.19	2.2	0.08	0.00258	0.00211	0.00108	0.0025	1	0.00176	86	54	0.0104	CC(C)(CC1Cc2ccccc2C1)NC[C@@H](O)COc1cc(C2CC3CC2C2C(C(=O)O)C32)ccc1C#N (stereo partly drawn)
29	27	210	0.95	0.709	100	4	3.9	1.3	0.439	0.304	0.746	2.5	68	0.886	140	50	0.511	O=C(NC1CC1)c1nc2cccnn2c1-c1ccc2ncnn2c1
1000	22	150	0.41	0.00216	89	0.43	0.24	0.18	0.00864	0.011	0.0109	0.1	69	0.0077	220	68	0.0809	Cc1ccc(NC(=O)c2cc(Oc3ccc(S(C)(=O)=O)cc3)c3c(c2)OC(C)(C)C3)nc1
